Two compounds from patent US9797884B2, “Marker for determination of sensitivity to anticancer agent” (KEIO UNIVERSITY, priority 2011, dated 2017) can be followed below.

Common to all, as to format: cell-based, human
For data set [1], the system named is DLD-1. Kind of data set: MTS assay cell viability, 48 hours L-OHP exposure. The note with it: DLD-1, 48 hours exposure, read-out: IC50 value (L-OHP concentration at which cell growth is inhibited by 50%). The source says: (§1) Ten human colorectal cancer cell lines (DLD-1, HCT15, HCT116, HT29, Lovo, LS174T, SW480, SW620, SW1116, and WiDr) were employed. HCT116 and HT29 were obtained from Kabushiki Kaisha Yakult Honsha. DLD-1, Lovo, SW480, SW1116, and WiDr were obtained from Dainippon Sumitomo Pharma Co., Ltd. HCT15 and LS174T were obtained from Cell Resource Center for Biomedical Research, Institute of Development, Aging and Cancer, Tohoku University. SW620 was obtained from Summit Pharmaceuticals International Corporation.
(§2) Cancer cells of each cell line were exposed to 0- to 1,000-μmol/L L-OHP for 48 hours and after drug exposure, cell viability was determined by means of an MTS assay (CellTiter96™ AQueous One Solution Cell Proliferation Assay, Promega). IC50 value (L-OHP concentration at which cell growth is inhibited by 50% as compared with L-OHP-non-treated sample) was calculated, and sensitivity of each cell line to L-OHP was evaluated by the IC50 value as an index.

For data set [2], the system named is HCT116. As to the kind of experiment: MTS assay cell viability, 48 hours L-OHP exposure. The note with it: HCT116, 48 hours exposure, read-out: IC50 value (L-OHP concentration at which cell growth is inhibited by 50%).
Source text: as §1, §2

Data set [3] relates to HCT15. As to the kind of experiment: MTS assay cell viability, 48 hours L-OHP exposure.
Source text: as §1, §2
In general terms: Formazan colour is commonly taken as a measure of viable cells.

Data set [4] concerns HT29. Kind of data set: MTS assay cell viability, 48 hours L-OHP exposure. The note with it: HT29, 48 hours exposure, read-out: IC50 value (L-OHP concentration at which cell growth is inhibited by 50%).
Source text: as §1, §2

The test system of data set [5] is LS174T. Kind of data set: MTS assay cell viability, 48 hours L-OHP exposure.
Source text: as §1, §2

In data set [6] the test system is Lovo. Kind of data set: MTS assay cell viability, 48 hours L-OHP exposure. The note with it: 48 hours exposure, read-out: IC50 value (L-OHP concentration at which cell growth is inhibited by 50%).
Source text: as §1, §2

Data set [7] has as its system SW1116. As to the kind of experiment: MTS assay cell viability, 48 hours L-OHP exposure. The note with it: SW1116, 48 hours exposure, read-out: IC50 value (L-OHP concentration at which cell growth is inhibited by 50%).
Source text: as §1, §2

In data set [8] the test system is SW480. As to the kind of experiment: MTS assay cell viability, 48 hours L-OHP exposure. The note with it: SW480, 48 hours exposure, read-out: IC50 value (L-OHP concentration at which cell growth is inhibited by 50%).
Source text: as §1, §2

Data set [9] relates to SW620. Kind of data set: MTS assay cell viability, 48 hours L-OHP exposure.
Source text: as §1, §2

The subject of data set [10] is WiDr. Kind of data set: MTS assay cell viability, 48 hours L-OHP exposure. The note with it: 48 hours exposure, read-out: IC50 value (L-OHP concentration at which cell growth is inhibited by 50%).
Source text: as §1, §2

Data set [11] relates to HCT116 and DLD-1 cells. Kind of data set: CE-TOFMS metabolomic analysis of intracellular metabolites after exposure to L-OHP. The note with it: 10 μM L-OHP, 24-hour exposure. On the procedure:
Among the cell lines employed in Example 1, two human colorectal cancer cell lines (HCT116 and DLD-1) were employed. Cell culturing was performed by means of a φ100 mm/Tissue Culture Dish (IWAKI) with a medium (Dulbecco's modified Eagle's Medium (DMEM) containing 10% fetal bovine serum (product of Invitrogen) at 37° C. under 5% CO2 conditions.
The two colorectal cancer cells were exposed to L-OHP by changing the culture medium to a medium containing L-OHP at 10 μmol/L. The same culture was performed in an L-OHP-free medium (control group). After exposure to L-OHP (0 hr, 4 hr, 12 hr, 24 hr, and 48 hr), the cells were washed on ice with 5% mannitol (4° C.). Immediately thereafter, methanol (4° C., containing an internal standard) was added to the washed cells, to thereby inactivate present enzymes, and the cells were stored at −80° C. Separately, cells for cell count were provided in addition to the cells from which metabolites were extracted, and then subjected to the same treatment before performing cell count. The data were employed in correction of the cell counts. […]
Comprehensive analysis of intracellular metabolites was performed by means of a capillary electrophoresis-time-of-flight-type mass spectrometer (CE-TOFMS) (product of Agilent Technologies). […] Metabolites detected at m/z values of 50 to 1,000 were simultaneously quantitated.

For data set [12], the system named is HCT116. As to the kind of experiment: Sensitivity of colorectal cancer cells to 5-FU.
Data set [13] concerns DLD-1. Kind of data set: Sensitivity of colorectal cancer cells to 5-FU.

Some results are limits rather than exact numbers.

Take `O=C1[O][Pt]2([NH][C@@H]3CCCC[C@H]3[NH]2)[O]C1=O` [L-OHP, (SP-4-2)-[(1R,2R)-cyclohexane-1,2-diamine-κN,κN′][ethanedioato (2-)-κO^1,κO^2]platinum]: the IC50 in [1] is 16.9 ± 6.31 µM; in data set [2], 0.89 ± 0.33 µM; in data set [4] it was 23.9 ± 9.29 µM; in [6] it was 0.72 ± 0.12 µM; in [7], 26.4 ± 4.12 µM; in data set [8], 0.65 ± 0.07 µM. Besides, the IC50 in data set [10] turned out to be 17.3 ± 5.24 µM. In addition, the “sensitivity group of the cell line to L-OHP on the basis of the MTS assay” value in [3] was “high-sensitive”; in data set [5], “low-sensitive”; in data set [9], “high-sensitive”. For the same compound, the “ratio (HCT116/DLD-1) of IMP intracellular level after exposure relative to control group” value in data set [11] (IMP) is recorded as 0.26. In [11] (dTMP, CMP, UMP, GMP, CDP, UDP, dCTP, CTP, UTP, GTP, NADP+, ATP and/or dGTP), the “ratio (HCT116/DLD-1) of intracellular level after exposure relative to control group, each metabolite” value is listed as at least 1.2.

For the compound `O=c1[nH]cc(F)c(=O)[nH]1` [5-FU, fluorouracil], the “sensitivity of the cell line to 5-FU” value in [12] is given as “high-sensitivity”; in data set [13] it was “low-sensitivity”.
